Data from US20090030034A1, “USE OF FGF INHIBITING SUBSTITUTED 1,2,3 INDOLIZINE DERIVATIVES IN THE PREPARATION OF MEDICAMENTS WHICH CAN BE USED TO TREAT DISEASES LINKED TO PATHOLOGICAL CHOROIDAL ANGIOGENESIS” (SANOFI-AVENTIS, priority 2004, published 2009).

System: laser-induced choroidal neovascularization
Assay: Laser induction of choroidal neovascularization in mice, oral treatment
Format: in vivo, C57BI6 mice
Conditions: 30 mg/kg/day orally during the last 7 days, day 14 after induction
Protocol: C57BI6 mice were used in these experiments. A model of laser-induced choroidal neovascularization (4 impacts per eye around the papilla) was applied to the animals as described by Tobe et al. Am. J. Pathol., 1998).
On day 14 after the induction and after monitoring by angiography, which makes it possible to estimate the percentage of lesions developing neovascularization, the animals are sacrificed and the eyeballs are enucleated for histological analysis. The mice are treated orally with one of the compounds of formula (I) during the last 7 days. The dose chosen for the monohydrate of the sodium salt of 2-amino-5-[(1-methoxy-2-methylindolizin-3-yl)carbonyl]benzoic acid is 30 mg/kg/day. The vehicle used is a 0.6% solution of methylcellulose in water.
Four mice are used for the control group and six mice for the treated group.
The size of the neovascular reaction is estimated from frozen sections by morphometric evaluations of the thickness using a computerized image analysis system. […]
Estimation is carried out by measuring the B/C ratio between, on the one hand, the EPR and the peak of the neovascular reaction (“B”), and, on the other hand, the thickness of the adjacent intact choroidal layer (“C”). This quantifying system was preferred to measuring surface areas of lesions as it is independent of the orientation of the histological sections.

COc1c(C)c(C(=O)c2ccc(N)c(C(=O)O)c2)n2ccccc12 [2-amino-5-[(1-methoxy-2-methylindolizin-3-yl)carbonyl]benzoic acid]
histological analysis and anti-CD31 immunohistochemistry of the laser impact sites: only a moderate thickening of the choriocapillary where the impacts occurred, without obvious sign of neovascularization | reduction of the laser-induced neovascular reaction, quantified by the B/C ratio, in comparison with the control mice (frozen sections, morphometric thickness, p<0.001): ~50%
